# Laboratory results reported in patent US8192989B2, “Solid surface for biomolecule delivery and high-throughput assay” (Nitto Denko Corporation, priority 2003, dated 2012).
# Assays:
# 293 cells [1] = experiment: Cytotoxicity assay - MTT assay after transfection; format: cell-based
# Procedure: Glutamine (100 mmol/L) and different transfection reagents (NDT-CP-B-1, NDT-CP-1, Superfect and lipofectamine 2000) were diluted in 0.2% gelatin solution, and 25 μl of the solution containing Glutamine/transfection reagent/gelatin was added into a 96 well plate and allowed to air dry. Then 25 μl GFP plasmid solution in opti MEM (20.0 μg/ml) was added into each well and incubated at room temperature for 25 min. The dried plate was ready for use (FIG. 32).
# In this experiment, 0.2% gelatin or 0.2% gelatin and 40.0 μg/ml laminin mixture was used for diluting transfection reagents NDT-CP-B-1, NDT-CP-1, NDT-LP-1 NDT-LP-2, Superfect and lipofectamine 2000, and 25 μl solution was added into 96 well plate. The amounts of NDT polymers used in each well were 8, 4 or 2 μg, respectively, the amounts of Superfect were 15, 7.5 and 3.8 μg/well respectively, and the amounts of lipofectamine 2000 were 2.5, 1.25 and 0.63 μg/well respectively. […] The transfection efficiency and cytotoxicity were analyzed by fluorescent microscope and MTT assay (FIG. 33).
# The cytotoxicities of transfection reagents on mammalian cells were evaluated using 3-[4,5 dimethylthiazol-2-yl]-2,5-diphenyltetrazolium bromide (MTT) method. […] The absorbance of the solution was measured at 570 nm. Cell viabilities was calculated using the equation: Viability (%)={Abs570 (sample)/Abs570 (control)}×100 (FIG. 31).
# 293 cells [2] = experiment: Effect of membrane disturbing peptide on PLL-laminin mediated gene transfer; format: cell-based; settings: membrane disturbing peptide in PLL-laminin based transfectable surface, 96-well (FIG. 28)
compound,measurement,setting,value
"NC(=O)CC[C@H](N)C(=O)O [glutamine, Glutamine]",effect on transfection cytotoxicity,"293 cells [1]; cytoreductive reagent added to transfectable surface, with versus without glutamine (FIG. 32)",significantly improved transfection cytotoxicity
RRRQGTWLNPGFPPQSCGYATVTDARRR (Chemically synthesized peptide corresponding to viral envelope protein VSVG) [VSVG peptide],effect on transfection efficiency,293 cells [2],significantly enhance transfection efficiency
laminin,effect on cytotoxicity caused by transfection reagents and procedures,"293 cells [1]; cell attaching reagent in transfection reagents-gelatin surface, with versus without laminin (FIG. 33)",significantly improved cytotoxicity
